Assay results: patent US6103709A (priority 1998, dated 2000)

How the values were obtained:
[1] = target: T1, human vitamin D-binding protein (hDBP) (Homo sapiens, UniProt P02774); assay: Relative Competitive Index assay, vitamin D-binding protein; conditions: for Vit D Binding Protein (RCI): RCI of 1α,25(OH)2 D3 set to 100, 4° C., pH 7.4; for Binding to DBP relative to 1α,25(OH)2 D3 (RCI, FIG. 7): 1α,25(OH)2 D3 = 100%, mean of three determinations; for DBP binding (in words): compared with 1α,25(OH)2 D3
T1 sequence (P02774 17-474): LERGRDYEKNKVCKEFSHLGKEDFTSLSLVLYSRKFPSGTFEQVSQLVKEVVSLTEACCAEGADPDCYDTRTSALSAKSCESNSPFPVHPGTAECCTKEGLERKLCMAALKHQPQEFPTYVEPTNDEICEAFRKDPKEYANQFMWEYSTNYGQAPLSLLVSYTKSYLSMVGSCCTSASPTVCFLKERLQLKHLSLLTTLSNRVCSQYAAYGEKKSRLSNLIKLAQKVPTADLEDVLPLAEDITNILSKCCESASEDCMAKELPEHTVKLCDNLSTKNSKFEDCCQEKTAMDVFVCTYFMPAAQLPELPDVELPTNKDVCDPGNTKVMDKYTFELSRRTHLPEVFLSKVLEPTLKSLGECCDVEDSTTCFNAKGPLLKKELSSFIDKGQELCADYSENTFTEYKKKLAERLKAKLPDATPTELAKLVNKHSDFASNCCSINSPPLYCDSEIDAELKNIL
Source text: The compared analogs are 14α,15α-methano-1α,25(OH)2 D3 (LO), 22(m(dimethylhydroxymethyl)phenyl)-23,24,25,26,27-pentanor-1α- OH-D3 (EV) and (22R)-1,25(OH)2 -22,23,diene-D3 (HR), all conformationally flexible genomic agonists. By definition the RCI for 1α,25(OH)2 D3 is set to 100%. The data seen in FIG. 7 represent the mean of three determinations.
Vitamin D-Binding Protein Assay Relative Competitive Index
This example describes a Relative Competitive Index Assay used for determination of analogs binding affinity to vitamin D-binding protein.
Phase separation was then obtained by the addition of 0.5 ml of cold dextran-coated charcoal.
The data was plotted as [competitor]/[[^3 H]25(OH)D3 ] vs. 1/[fraction bound]. The RCI was calculated as [slope of competitor]/[slopefor 25(OH)D3 ]×100. Results are seen in FIG. 7. Although each analog was assayed in competition with [^3 H]25(OH)D3, the data are expressed as relative to the binding of 1α,25(OH)2 D3, with its RCI set to 100.

[2] = system: vitamin D-deficient chick; assay: Intestinal Ca2+ absorption (ICA) in vitamin D-deficient chick; type: in vivo; conditions: i.m.; for Classic Vit D Responses ICA: relative to 100 pmol 1α,25(OH)2 D3 = 100%, 12 h before assay; for ICA (in words): vitamin D-deficient chick
Procedure: A primary fundamental physiological property of vitamin D and particularly 1α,25(OH)2 D3 is its ability to stimulate the intestinal absorption of calcium and facilitate the availability of dietary calcium to the organism. Intestinal absorption of the calcium is measured by the intestinal calcium absorption (ICA) assay, developed in the model of vitamin-D deficient chicks. The ICA assay was used to determine the relative capability of the tested analog to stimulate intestinal Ca^2+ absorption.
(§1) Results of the testing of the analogs of the invention in vivo by the ICA and IBM assays are shown in FIG. 9 which illustrates the capability of analogs LO, EV and HR to stimulate intestinal Ca^2+ absorption (ICA) and bone Ca^2+ mobilizing activity (BCM). In this study, the analogs of 1α,25(OH) were given i.m. to vitamin D-deficient chicks 12 hours before the assay began. The activity produced by 100 pmol of 1α,25(OH)2 D3 was set to be 100% for both ICA and BCM. The dose of the analogs required to achieve a biological response for either ICA or BCM equivalent to the 100 pmol dose of 1α,25(OH)2 D3 was calculated and converted to a percentage. Results are expressed as mean +SE of groups of seven chicks. Each assay included a negative control (-D), that is no vitamin D was present, and a positive control, where vitamin D3 (+D3) was present in 3.25 nmol. […] 1α,25(OH)2 D3 and analogs LO [14α,15α-methano-1α,25(OH)2 D3 ], EV [22-(m(dimethylhydroxymethyl)phenyl)-23,24,25,26,27-pentanor-1α-OH-D3 ] and HR [(22R)-1,25(OH)2 -22,23-diene-D3 ] were administered in 0.0065, 0.065, 0.65 and 6.5 nmol as shown.
(§2) In Vivo Assays of Intestinal Calcium Absorption and Bone Calcium Mobilization
(§3) This example describes assays used for determination of analogs biological activity in intestinal calcium absorption (ICA) and bone calcium mobilization (BCM) assays.
(§4) ICA and BCM were measured in vivo in the vitamin D-deficient chick model system according to Biochem. Pharmacol., 18: 2347 (1969).
(§5) Twelve hours before assay, the chickens, which had been placed on a zero-calcium diet 48 h before assay, were injected intramuscularly with the vitamin metabolite 1α,25(OH)2 D3 or analog (1-10,000 pmoles) dissolved in 0.1 mL of ethanol/1,2-propanediol (1:1, v/v). At the time of assay, 4.0 mg of ^40 Ca^2+ +5 μCi of ^45 Ca^2+ (New England Nuclear) were placed in the duodenum of the birds lightly anesthetized with ether. After 30 min, the birds were decapitated and the blood was collected.
The radioactivity content, which is a measure of ICA, of 0.2 mL of serum was measured in a liquid scintillation counter (Beckman LS8000) to determine the amount of ^45 Ca^2+ absorbed.

[3] = system: vitamin D-deficient chick; assay: Bone Ca2+ mobilizing activity (BCM) in vitamin D-deficient chick; type: in vivo; conditions: i.m.; for Classic Vit D Responses BCM: relative to 100 pmol 1α,25(OH)2 D3 = 100%, 12 h before assay; for BCM (in words): vitamin D-deficient chick
Procedure: The bone calcium mobilizing (BCM) assay is also conducted in the vitamin D-deficient chick. The BCM assay determines the relative ability of the tested analog to mobilize bone calcium. The natural hormone 1α,25(OH)2 D3 is very potent in the BCM assay. For example, when 1α,25(OH)2 D3 in inappropriate amounts are used as a drug in human patients, the patient may become hypercalcemic and eventually hypercalciuria with nephrolithiasis and renal failure may develop. The BCM assay was used to determine the relative activity of the analogs of the invention to stimulate bone Ca^2+ mobilization.
as §1, §2, §3, §4, §5
BCM activity was estimated from the increase of total serum calcium concentration, as determined by atomic absorption spectrophotometry.

VDRnuc = assay: Genomic response (summary classification); conditions: Yes/No, Tables 1 and 6
VDRmem = assay: Rapid response (summary classification); conditions: for Rapid Response: Yes/No, Tables 1 and 6

| SMILES | Vit D Binding Protein (RCI) [1] | Classic Vit D Responses ICA [2] | ICA (in words) [2] | Classic Vit D Responses BCM [3] | BCM (in words) [3] | Genomic Response (VDRnuc) | Rapid Response (VDRmem) | Binding to DBP relative to 1α,25(OH)2 D3 (RCI, FIG. 7) [1] | DBP binding (in words) [1] | genomic and/or rapid responses elicited (in words) (VDRmem) | RCI for DBP, times greater than 1α,25(OH)2 D3 ([1]; relative to reference 1α,25(OH)2 D3) |
| --- | --- | --- | --- | --- | --- | --- | --- | --- | --- | --- | --- |
| C=C1/C(=C\C=C2/CCC[C@]3(C)[C@@H]([C@H](C)Cc4cccc(O)c4)CC[C@@H]23)C[C@@H](O)C[C@@H]1O [DE] | 980 | 0.3% | show stimulating activity in both ICA and BCM assays | 1.0% | show stimulating activity in both ICA and BCM assays | Yes | Yes |  |  |  |  |
| C=C1/C(=C\C=C2/CCC[C@]3(C)[C@@H]([C@H](C)Cc4ccc(O)cc4)CC[C@@H]23)C[C@@H](O)C[C@@H]1O [DF] | 1980 | 0.04% |  | 0.08% |  | Yes | Yes |  |  |  |  |
| C=C1/C(=C\C=C2/CCC[C@]3(C)[C@@H]([C@H](C)Cc4cccc(C(C)(C)O)c4)CC[C@@H]23)C[C@@H](O)C[C@@H]1O [EV] | 25 | 30% | show stimulating activity in both ICA and BCM assays | 8% | show stimulating activity in both ICA and BCM assays | Yes | Yes | 25% | lower than 1α,25(OH)2 D3 |  |  |
| CC1=C(/C=C\C2=CCC[C@@]3(C)[C@@H]2CC[C@@H]3[C@H](C)CCCC(C)(C)O)C[C@@H](O)C[C@@H]1O [GF] | 2 | 1.5% |  | < 0.1% |  | Yes | Yes |  | lower than 1α,25(OH)2 D3 |  |  |
| C=C1/C(=C\C=C2/CCC[C@]3(C)[C@@H]([C@H](C)CCCC(C)(C)O)CC[C@@H]23)C[C@@H](O)C[C@H]1O [HL] |  | < 0.1% |  | < 0.3% |  | No | No |  |  |  |  |
| C=C1/C(=C\C=C2/CCC[C@]3(C)[C@@H]([C@H](C)C=C=CC(C)(C)O)CC[C@@H]23)C[C@@H](O)C[C@@H]1O [HQ] | 11 | 2.5% |  | 1.0% |  | Yes | Yes |  | lower than 1α,25(OH)2 D3 |  |  |
| C=C1/C(=C\C=C2/CCC[C@]3(C)[C@@H]([C@H](C)C=C=CC(C)(C)O)CC[C@@H]23)C[C@@H](O)C[C@@H]1O [HR] | 48 | 12% |  | 0.6% |  | Yes | Yes | 48% | lower than 1α,25(OH)2 D3 |  |  |
| C[C@H](CCCC(C)(C)O)[C@H]1CC[C@H]2C3=CC=C4C[C@@H](O)C[C@H](O)[C@]4(C)[C@H]3CC[C@]12C [JM] | -0.3 | 1.8% |  | 0.8% |  | No | Yes |  | lower than 1α,25(OH)2 D3 | elicit solely rapid responses |  |
| C[C@H](CCCC(C)(C)O)[C@H]1CC[C@H]2C3=CC=C4C[C@@H](O)C[C@H](O)[C@@]4(C)[C@@H]3CC[C@]12C [JN] | -0.7 | 2.1% |  | 1.0% |  | No | Yes |  | lower than 1α,25(OH)2 D3 | elicit solely rapid responses |  |
| C[C@H](CCCC(C)(C)O)[C@H]1CC[C@H]2C3=CC=C4C[C@@H](O)C[C@H](O)[C@@]4(C)[C@H]3CC[C@]12C [JO] | 2.0 | 0.6% |  | 0.03% |  | No | Yes |  | lower than 1α,25(OH)2 D3 | elicit solely rapid responses |  |
| C[C@H](CCCC(C)(C)O)[C@H]1CC[C@H]2C3=CC=C4C[C@@H](O)C[C@H](O)[C@]4(C)[C@@H]3CC[C@]12C [JP] | -5.0 | 0.5% |  | 0.8% |  | No | Yes |  | lower than 1α,25(OH)2 D3 | elicit solely rapid responses |  |
| CC1=C(C=C=C2CCC[C@]3(C)[C@@H]([C@H](C)CCCC(C)(C)O)CC[C@@H]23)C[C@@H](O)C[C@@H]1O [JV] | 37 | 0.02% |  | 0.02% |  | Yes | Yes |  | lower than 1α,25(OH)2 D3 |  |  |
| CC1=C(C=C=C2CCC[C@]3(C)[C@@H]([C@H](C)CCCC(C)(C)O)CC[C@@H]23)C[C@@H](O)C[C@@H]1O [JW] | 700 | 0.05% |  | 0.3% |  | Yes | Yes |  |  |  |  |
| C=C1CC[C@H](O)C/C1=C/C=C1\CCC[C@]2(C)[C@@H]([C@H](C)Cc3ccc(O)cc3)CC[C@@H]12 [JX] | 211,000 | < 0.05% |  | < 0.05% |  | Yes | Yes |  | binds very tightly to DBP |  | 2110 times |
| C=C1CC[C@H](O)C/C1=C/C=C1\CCC[C@]2(C)[C@@H]([C@H](C)Cc3cccc(O)c3)CC[C@@H]12 [JY] | 132,000 | < 0.05% |  | < 0.05% |  | Yes | Yes |  |  |  |  |
